Laboratory results reported in article PMC3196554 (Chemical research in toxicology, 2010).
Like-named read-outs stand apart in the source and are kept apart here.

Legend:
[1] = for Amount in urine collected for 10 h after consumption of cooked beef: Mean ± SD of 3 independent measurements; for % Dose in urine collected for 10 h after consumption of cooked beef: metabolites as % of dose of parent MeIQx or PhIP
[2] = 14C-PhIP; cited from earlier work
[3] = cited from earlier work
P450 1A2 [4] = conditions: subjects given furafylline prior to cooked beef; cited from earlier work
P450 1A2 [5] = conditions: human hepatocytes pretreated with furafylline; cited from earlier work

Cn1c(N)nc2ncc(-c3ccccc3)cc21 [PhIP, 2-amino-1-methyl-6-phenylimidazo[4,5-b]pyridine]
Amount in urine collected for 10 h after consumption of cooked beef ([1]; Subject S-001): 37.1 ± 3.3 ng
% Dose in urine collected for 10 h after consumption of cooked beef ([1]; Subject S-001): 0.8 % Dose
Amount in urine collected for 10 h after consumption of cooked beef ([1]; Subject S-003): 6.5 ± 1.1 ng
% Dose in urine collected for 10 h after consumption of cooked beef ([1]; Subject S-003): 0.1 % Dose
Amount in urine collected for 10 h after consumption of cooked beef ([1]; Subject S-005): 11.4 ± 0.9 ng
% Dose in urine collected for 10 h after consumption of cooked beef ([1]; Subject S-005): 0.2 % Dose
Amount in urine collected for 10 h after consumption of cooked beef ([1]; Subject S-008): 9.5 ± 0.6 ng
% Dose in urine collected for 10 h after consumption of cooked beef ([1]; Subject S-008): 0.2 % Dose
Amount in urine collected for 10 h after consumption of cooked beef ([1]; Subject S-009): 18.5 ± 1.6 ng
% Dose in urine collected for 10 h after consumption of cooked beef ([1]; Subject S-009): 0.4 % Dose
Amount in urine collected for 10 h after consumption of cooked beef ([1]; Subject S-012): 17.0 ± 0.7 ng
% Dose in urine collected for 10 h after consumption of cooked beef ([1]; Subject S-012): 0.3 % Dose
Amount in urine collected for 10 h after consumption of cooked beef ([1]; Subject S-013): 14.1 ± 1.2 ng
% Dose in urine collected for 10 h after consumption of cooked beef ([1]; Subject S-013): 0.3 % Dose
Amount in urine collected for 10 h after consumption of cooked beef ([1]; Subject S-014): 8.9 ± 0.6 ng
% Dose in urine collected for 10 h after consumption of cooked beef ([1]; Subject S-014): 0.2 % Dose
Amount in urine collected for 10 h after consumption of cooked beef ([1]; Subject S-015): 8.2 ± 1.0 ng
% Dose in urine collected for 10 h after consumption of cooked beef ([1]; Subject S-015): 0.2 % Dose
Amount in urine collected for 10 h after consumption of cooked beef ([1]; Subject S-020): 18.9 ± 1.6 ng
% Dose in urine collected for 10 h after consumption of cooked beef ([1]; Subject S-020): 0.4 % Dose
Proportion of the dose eliminated in urine within 24 h as isomeric HON-PhIP-N-glucuronide conjugates [2]: approximately 50%
pKa [3]: 5.65
Share of elimination accounted for by P450 1A2 (P450 1A2 [4]): 70%

Cc1nc2c([nH]1)c(=O)n(C)c(=O)n2Cc1ccco1 [furafylline]
Inhibition of formation of 8-CH2OH-IQx, IQx-8-COOH and glucuronide conjugates of HONH-MeIQx and HONH-PhIP (P450 1A2 [5]): inhibited to a similar degree
